Values quoted from earlier work, collected in patent US8048407B2, “In situ gelling self-reactive materials for embolization” (priority 2003, dated 2011).

Settings: literature studies

C=CC(=O)NCNC(=O)C=C [NMBA, N,N-methylenebisacrylamide]
cross-link efficiency: 0.0066
